Tested on: myostatin protein
Assay: Column chromatography of muscle homogenate over Cystoseira canariensis fractions in place of the heparin column, eluate read by SDS-PAGE and Western blot
Assay type: binding, human
Details: fraction used as column in place of heparin, plus sepharose; crude muscle homogenate
Excerpt: The testing involved the use of column chromatography analysis of Cystoseira canariensis fractions made as described herein. In the initial testing, the method described by Se-Jin-Lee and Alexandra McPherron, “Regulation of Myostatin Activity and Muscle Growth,” Proc. Nat'l Acad. Sci., Vol. 98, No. 16, pp. 9306-9311 (2001) (FIG. 1), was followed. FIG. 2 hereof provides an illustration of the experimental apparatus used. […]
Protein sodium dodecyl sulfate-polyacrylamide gel electrophoresis (“SDS-PAGE”) was performed with gradient gel from 10 to 20% acrylamide concentrations described by Laemmli UK, “Cleavage of Structural Proteins During 15 Assembly of the Head of Bacteriophage T4,” Nature, 227: 680-685 (1970). […] The supernatant fraction of each sample was removed and used to determine protein concentration by measuring absorbance at 280 nanometers (nm). […]
After transfer, membranes were blocked in buffer containing 0.5% Tween-20, 0.2% gelatin, and 3.0% dry milk (blocking buffer) for at least 1 hour at room temperature. […] The relative concentration of myostatin protein in each sample was determined by scanning densitometry. […]

heparin
affinity to myostatin (anti-myostatin Western blot of protein eluted from the chromatography column): cross-recognized 36-37 kDa protein
